This note sets out measurements from paper PMC9727733, “Liposomal Binuclear Ir(III)–Cu(II) Coordination Compounds with Phosphino-Fluoroquinolone Conjugates for Human Prostate Carcinoma Treatment” (Inorganic Chemistry, 2022).

Common to all, as to assay type: cell-based
Experiment [1] has as its system A549 cell line (human lung adenocarcinoma). The experiment is described as follows: MTT cytotoxicity assay, A549 cells. The note with it: for IC50: MTT. On the procedure: (§1) The cytotoxicity of the four novel heteronuclear Ir^III–Cu^II complexes was assessed against four selected cancer cell lines: A549, MCF7, DU145, WM2664, and one normal HEK293T cell line in vitro (Table 3). IC50 values (concentration of a drug required to inhibit the growth of 50% of the cells) were assessed in two different approaches, i.e., after 24 or 24 + 48 h, using the 3-(4,5-dimethylthiazole)-2,5-diphenyltetrazolium bromide (MTT) method. Cancerous and noncancerous diseases have also been treated with the well-known drug cisplatin in the same concentration range as investigated complexes and are considered as a control. IC50 values have been determined from the plots of cell viability at various concentrations of each compound by matching appropriate dose–response curves and are presented in Table 3. […]
(§2) MCF7 cell line (human breast adenocarcinoma, morphology: epithelial-like, ATCC: HTB-22), A549 cell line (human lung adenocarcinoma, morphology: epithelial, ATCC: CCL-185) and HaCaT (human keratinocyte) were cultured in Dulbecco’s Modified Eagle’s Medium (DMEM, Corning) with phenol red, supplemented with 10% fetal bovine serum (FBS) and with 1% streptomycin/penicillin. WM266-4 cell line […]
(§3) (human skin (metastasis), morphology: epithelial, ATCC CRL-1676) were cultured in EMEM (EBSS) + 2mM Glutamine + 1% Non-Essential Amino Acids (NEAA) + 1% Sodium Pyruvate (NaP) + 10% Foetal Bovine Serum (FBS). DU-145 cell line (human prostate carcinoma) and HEK293T cell line (human embryonic kidney) were cultured in minimum essential medium (MEM, Corning) with only 10% fetal bovine serum (FBS). Cultures were incubated at 37 °C under a humidified atmosphere containing 5% CO2.
(§4) Cells were passaged using a solution containing 0.05% trypsin and 0.5 mM EDTA. All media and other ingredients were purchased from ALAB, Poland.
(§5) Since most of the studied compounds are insoluble in aqueous media, therefore they needed to be pre-dissolved in DMSO for biological tests. Cytotoxicity was assessed by MTT assay performed according to the protocols described previously. (70) In brief, 1 × 10^4 cells per well, seeded in 96-well flat-bottom microtiter plate, were incubated with the tested complexes (1, 2, 3 and 4) at various concentrations for 24 h.
(§6) After that time, solutions of compounds were washed out, cells were washed thee time with PBS and fresh medium was applied. Each compound concentration was tested in five replicates and repeated at least three times. Determined values of IC50 (concentration of a drug required to inhibit the growth of 50% of the cells) are given as mean + S.D. (Standard Deviation). Furthermore, post-treatment survival assessment of the treated cells was analyzed under a fluorescence inverted microscope (Olympus IC51, Japan) with an excitation filter 470/20 nm. For this, cells were stained with two versatile fluorescence dyes: fluorescein […]
(§7) diacetate (FDA, 5 mg/mL) and propidium iodide (PI, 5 mg/mL) in standard conditions in the dark for 20 min. Before visualization dyes were removed and cells were washed with PBS twice. IC50 values were determined, after 72 h, from the plots of cell viability in the presence of various concentrations of each compound by matching dose–response curves. […]
(4) In brief, before imaging, A549 and Du145 cells were seeded on microscopic slides at a […]

Experiment [2] has as its system MCF7 cell line (human breast adenocarcinoma). In words: MTT cytotoxicity assay, MCF7 cells. The procedure:
as §1, §2, §3, §4, §5, §6, §7
(In general: Tetrazolium assays rely on reduction of a dye to a coloured formazan, in cell work by metabolically active cells.)

Experiment [3] relates to DU-145 cell line (human prostate carcinoma). The experiment is described as follows: MTT cytotoxicity assay, DU145 cells. On the procedure:
as §1
Bovine Serum (FBS). DU-145 cell line (human prostate carcinoma) and HEK293T cell line (human embryonic kidney) were cultured in minimum essential medium (MEM, Corning) with only 10% fetal bovine serum (FBS). Cultures were incubated at 37 °C under a humidified atmosphere containing 5% CO2.
as §4, §5, §6, §7

For experiment [4], the system named is WM2664 cells (WM266-4, human skin metastasis). The experiment is described as follows: MTT cytotoxicity assay, WM2664 cells. The procedure:
as §1, §2, §3, §4, §5, §6, §7

The test system of experiment [5] is HEK293T cell line (human embryonic kidney). In words: MTT cytotoxicity assay, HEK293T normal cells. The procedure:
The cytotoxicity of the four novel heteronuclear Ir^III–Cu^II complexes was assessed against four selected cancer cell lines: A549, MCF7, DU145, WM2664, and one normal HEK293T cell line in vitro (Table 3). IC50 values (concentration of a drug required to inhibit the growth of 50% of the cells) were assessed in two different approaches, i.e., after 24 or 24 + 48 h, using the 3-(4,5-dimethylthiazole)-2,5-diphenyltetrazolium bromide (MTT) method. Cancerous and noncancerous diseases have also been treated with the well-known drug cisplatin in the same concentration range as investigated complexes and are considered as a control. IC50 values have been determined from the plots of cell viability at various concentrations of each compound by matching appropriate dose–response curves and are presented in Table 3.
as §3, §4, §5, §6, §7

[6] abbreviates: A549, 72 h (24 + 48 h recovery).
The mark [7] stands for this setting: MCF7, 72 h (24 + 48 h recovery).
Setting [8] is: DU145, 72 h (24 + 48 h recovery).
Where [9] appears, read: WM2664, 72 h (24 + 48 h recovery).

Turning to “[Ir(η^5-Cp*)Cl2Plfx-Cu(phen)](NO3)·1.3(H2O)·1.95(CH3OH) [IrPlfxCu (3)]”, the half-maximal inhibitory concentration (IC50) in experiment [1] (A549, 24 h treatment) was 0.0316 ± 7.6e-06 µM; in experiment [1] (setting [6]), 0.36 ± 0.00022 µM; in experiment [2] (MCF7, 24 h treatment), 24.2 ± 7.2 µM; in experiment [2] (setting [7]) it was above 1000 µM; in experiment [3] (DU145, 24 h treatment), 0.0142 ± 2.4e-06 µM; in experiment [3] (setting [8]), 126 ± 4.4 µM. For the same compound, the half-maximal inhibitory concentration (IC50) in experiment [4] (WM2664, 24 h treatment) turned out to be 0.0101 ± 2.2e-06 µM; in experiment [4] (setting [9]), 229 ± 25.9 µM; in experiment [5] (24 h treatment) it was 776 ± 15.7 µM; in experiment [5] (72 h (24 + 48 h recovery)), 823 ± 12.3 µM.
Take “[Ir(η^5-Cp*)Cl2Pcfx-Cu(phen)](NO3)·1.75(CH3OH)·0.75(H2O) [IrPcfxCu (1)]”: the IC50 in experiment [1] (A549, 24 h treatment) was 0.0355 ± 5.6e-06 µM; in experiment [1] (setting [6]), 0.000424 µM; in experiment [2] (MCF7, 24 h treatment), 35.3 ± 6.5 µM; in experiment [2] (setting [7]), above 1000 µM; in experiment [3] (DU145, 24 h treatment) it was 1.28e-06 µM; in experiment [3] (setting [8]) it was 126 ± 3.4 µM. Further, the IC50 in experiment [4] (WM2664, 24 h treatment) was determined as 0.0052 ± 4.1e-06 µM; in experiment [4] (setting [9]), 137 ± 2.2 µM; in experiment [5] (24 h treatment) it was 787 ± 11.2 µM; in experiment [5] (72 h (24 + 48 h recovery)), 887 ± 12.7 µM.
With “[Ir(η^5-Cp*)Cl2Pnfx-Cu(phen)](NO3)·1.75(CH3OH)·0.75(H2O) [IrPnfxCu (2)]”, the IC50 in experiment [1] (A549, 24 h treatment) is 0.0112 ± 7.8e-06 µM; in experiment [1] (setting [6]), 0.0366 ± 2.8e-06 µM; in experiment [2] (MCF7, 24 h treatment) it was 30 ± 0.7 µM; in experiment [2] (setting [7]), above 1000 µM; in experiment [3] (DU145, 24 h treatment) it was 0.00108 ± 1.9e-08 µM; in experiment [3] (setting [8]) it was 123 ± 5.4 µM. The IC50 in experiment [4] (WM2664, 24 h treatment) worked out at 0.0099 ± 3.8e-06 µM; in experiment [4] (setting [9]) it was 155 ± 3.2 µM; in experiment [5] (24 h treatment), 756.8 ± 5.7 µM; in experiment [5] (72 h (24 + 48 h recovery)), 857 ± 15.9 µM.
For `N.N.[Cl][Pt][Cl]` [cisplatin (CDDP), cisplatin, reference compound], the IC50 in experiment [1] (A549, 24 h treatment) stood at 0.057 ± 1.3e-06 µM; in experiment [1] (setting [6]), 71.7 ± 3.7 µM; in experiment [2] (MCF7, 24 h treatment) it was 51.9 ± 4.6 µM; in experiment [2] (setting [7]), 17.7 ± 8.6 µM; in experiment [3] (DU145, 24 h treatment) it was 0.0683 ± 1.3e-06 µM; in experiment [3] (setting [8]), 65.5 ± 3.6 µM. Also, the IC50 in experiment [4] (WM2664, 24 h treatment) amounted to 2.6 ± 0.6 µM; in experiment [4] (setting [9]) it was 8.3 ± 0.4 µM; in experiment [5] (24 h treatment) it was 21 ± 1.8 µM; in experiment [5] (72 h (24 + 48 h recovery)) it was 10.3 ± 2.1 µM.
Regarding “[Ir(η^5-Cp*)Cl2Psfx-Cu(phen)] [IrPsfxCu (4)]”, the IC50 was 0.0181 ± 1.3e-06 µM in experiment [1] (A549, 24 h treatment); 0.6 ± 0.00029 µM in experiment [1] (setting [6]); 10.5 ± 0.8 µM in experiment [2] (MCF7, 24 h treatment); above 1000 µM in experiment [2] (setting [7]); 0.0101 ± 2.9e-06 µM in experiment [3] (DU145, 24 h treatment); 53.6 ± 0.4 µM in experiment [3] (setting [8]). In addition, the IC50 in experiment [4] (WM2664, 24 h treatment) was determined as 0.0062 ± 2.4e-06 µM; in experiment [4] (setting [9]), 212 ± 10.5 µM; in experiment [5] (24 h treatment) it was 677 ± 9.2 µM; in experiment [5] (72 h (24 + 48 h recovery)) it was 777 ± 15.3 µM. Besides, the “times more effective than the reference drug cisplatin” value in experiment [1] (A549, IC50 comparison) is recorded as “more than 100”. Also, the “selectivity index (SI – IC50 (normal cell line)/IC50 (cancer cell line))” value in experiment [1] (A549 cell line) is “approximately 1290”.
In the case of `O=[N+]([O-])[O-].O=[N+]([O-])[O-].[Cu+2].c1cnc2c(c1)ccc1cccnc12` [Cu(phen)(NO3)2, reference compound], the IC50 in experiment [1] (A549, 24 h treatment) came to 537 ± 13.2 µM; in experiment [1] (setting [6]), 721 ± 15.1 µM; in experiment [2] (MCF7, 24 h treatment), 318 ± 12.2 µM; in experiment [2] (setting [7]), 426 ± 9.9 µM; in experiment [3] (DU145, 24 h treatment), 412 ± 10.9 µM; in experiment [3] (setting [8]), 659 ± 14.5 µM. Besides, the IC50 in experiment [4] (WM2664, 24 h treatment) is 933 ± 13.6 µM; in experiment [4] (setting [9]) it was 1110 ± 18.5 µM; in experiment [5] (24 h treatment), 81.8 ± 8.2 µM; in experiment [5] (72 h (24 + 48 h recovery)), 42.4 ± 9.1 µM.

In general, IC50 refers to the concentration that inhibits the measured activity by half.
